SMILES strings stand for the structures.

The test system of the test is Escherichia coli strain ATCC25922. Nature of the test: standard microdilution assay to determine minimum inhibitory concentrations (MICs). The format is cell-based. Particulars: for E. coli ATCC25922 MIC: Escherichia coli strain ATCC25922, microdilution; for MIC: Escherichia coli, ATCC25922, Escherichia coli strain ATCC25922, microdilution, read-out: E. coli ATCC25922 MIC. The procedure, abridged: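 Broth microdilution MIC against E. coli ATCC25922, following CLSI protocols, typically in a 100 microliter final volume. Results reported as +/− relative to a 16 micrograms/ml cutoff.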

For `N=C(N)NCCCNCc1ccc(-n2cc3cc(-c4cncc(CCCCN)c4)[nH]c3nc2=O)cc1` [Compound 2060a], the “E. coli ATCC25922 MIC” value is reported as “+ (a “+” indicates that the compound has an MIC value of 16 micrograms/ml or less)”. On the same count and under the same terms, to `CN1CCN(CCCN(C2CCNCC2)S(=O)(=O)c2ccc(-c3cc4cn(-c5ccc(CN6CC[C@@H](NC(=N)N)C6)cc5)c(=O)nc4[nH]3)cc2)CC1` [Compound 1207] belongs “− (a “−” indicates that the compound has an MIC value greater than 16 micrograms/ml)”; to `N=C(N)NCCCNCc1ccc(-n2cc3cc(-c4cc(CNCCN)cc(OC(F)(F)F)c4)[nH]c3nc2=O)cc1` [Compound 2070a], “+ (a “+” indicates that the compound has an MIC value of 16 micrograms/ml or less)”.

For the molecule `N=C(N)NCCCNCc1ccc(-n2cc3cc(-c4cccc(S(=O)(=O)N(CC5CC5)C5CCNCC5)c4)[nH]c3nc2=O)cc1` [Compound 1018], the “E. coli ATCC25922 MIC” value is on record as “+ (a “+” indicates that the compound has an MIC value of 16 micrograms/ml or less)”. Consider `NCCCNCc1ccc(-c2cn3nc(NC(=O)c4ccc(F)cc4)[nH]c3nc2=O)cc1` [Compound 709], for which the MIC (commonly the smallest concentration in the dilution series that meets the test's criterion for growth inhibition) was over 16 µg/mL. The same measure, in the same setting: in the case of `N=C(N)NCCCN(CCCN)Cc1ccc(-n2cc3cc[nH]c3nc2=O)cc1` [Compound 194] it was under 16 µg/mL. Turning to `CC1CN(S(=O)(=O)c2ccc(-c3cc4cn(-c5ccc(CNCCCN)cc5)c(=O)nc4[nH]3)cc2)CC(C)N1` (stereo not drawn) [Compound 853], the “E. coli ATCC25922 MIC” value is “+ (a “+” indicates that the compound has an MIC value of 16 micrograms/ml or less)”. On the same count and under the same terms, to `N=C(N)N[C@@H]1CCCN(Cc2ccc(-n3cc4cc(-c5ccc(S(=O)(=O)N(Cc6ccncc6)C6CCNCC6)cc5)[nH]c4nc3=O)cc2)C1` [Compound 1177] belongs “− (a “−” indicates that the compound has an MIC value greater than 16 micrograms/ml)”. Regarding `N=C(N)NCCCNCc1ccc(-n2cc3cc(-c4cc(C(=O)Nc5ccc(F)cc5)cc(N5CCNCC5)c4)[nH]c3nc2=O)cc1` [Compound 761], the MIC is under 16 µg/mL. Regarding `N=C(N)NCCCNCc1ccc(-n2cc3cc(-c4cc(C(=O)NC5CCC(F)(F)CC5)cc(N5CCNCC5)c4)[nH]c3nc2=O)cc1` [Compound 1045], the “E. coli ATCC25922 MIC” value is “+ (a “+” indicates that the compound has an MIC value of 16 micrograms/ml or less)”.

For the molecule `N=C(N)NCCCNCc1ccc(-n2cc3cc(-c4ccc(S(=O)(=O)N(CCOc5ccc(F)cc5)C5CCNCC5)cc4)[nH]c3nc2=O)cc1` [Compound 770], the “E. coli ATCC25922 MIC” value is reported as “+ (a “+” indicates that the compound has an MIC value of 16 micrograms/ml or less)”. Still for that read-out and setting: to `N=C(N)NCCCNCc1ccc(-n2cc3cc(C4CCCN(CCOCCO)C4)[nH]c3nc2=O)cc1` (stereo not drawn) [Compound 2043a] belongs “+ (a “+” indicates that the compound has an MIC value of 16 micrograms/ml or less)”.

For the molecule `CC(CCN)c1cc(-c2cc3cn(-c4ccc(CNCCCNC(=N)N)cc4)c(=O)nc3[nH]2)ccc1Cl` (stereo not drawn) [Compound 2093a], the “E. coli ATCC25922 MIC” value is “+ (a “+” indicates that the compound has an MIC value of 16 micrograms/ml or less)”. For `COc1cccc(CCCN(C2CCNCC2)S(=O)(=O)c2ccc(-c3cc4cn(-c5ccc(CN)cc5)c(=O)nc4[nH]3)cc2)c1` [Compound 1036], the MIC was over 16 µg/mL.

For the molecule `NCCCNCc1ccc(-n2cc3cc(-c4ccc(C[C@H](N)CO)cc4)[nH]c3nc2=O)cc1` [Compound 867], the MIC was under 16 µg/mL. Regarding `N=C(N)NCCCNCc1ccc(-n2cc3cc(-c4ccc(S(=O)(=O)NC5CCNCC5)cc4)[nH]c3nc2=O)cc1` [Compound 871], the “E. coli ATCC25922 MIC” value is given as “+ (a “+” indicates that the compound has an MIC value of 16 micrograms/ml or less)”. Consider `NCCCNCc1ccc(-n2cc3cc(-c4ccc(S(=O)(=O)N(CC5CCOCC5)C5CCCNC5)cc4)[nH]c3nc2=O)cc1` (stereo not drawn) [Compound 831], for which the “E. coli ATCC25922 MIC” value is reported as “+ (a “+” indicates that the compound has an MIC value of 16 micrograms/ml or less)”. Same read-out and setting: in the case of `N=C(N)NCCCNCc1ccc(-n2cc3cc(-c4ccc(C(NC5CNC5)C(F)F)cc4)[nH]c3nc2=O)cc1` (stereo not drawn) [Compound 1462] it was “+ (a “+” indicates that the compound has an MIC value of 16 micrograms/ml or less)”; in that of `NCCCNCc1ccc(-n2cc3cc(-c4ccc(S(=O)(=O)N(CC5COCCO5)C5CCCNC5)cc4)[nH]c3nc2=O)cc1` (stereo not drawn) [Compound 846], “+ (a “+” indicates that the compound has an MIC value of 16 micrograms/ml or less)”.

Take `N=C(N)NCCCNC(=O)c1ccc(-n2cc3cc(C4CCCN(C(=N)N)C4)[nH]c3nc2=O)cc1` (stereo not drawn) [Compound 1256]: the minimal inhibitory concentration (MIC) is under 16 µg/mL.

On to `N=C(N)NCCCNCc1ccc(-n2cc3cc(-c4cc(CCCCN)ccc4F)[nH]c3nc2=O)cc1` [Compound 2091a], for which the “E. coli ATCC25922 MIC” value is “+ (a “+” indicates that the compound has an MIC value of 16 micrograms/ml or less)”. Take `N=C(N)NCCCNCc1ccc(-c2cn3cc(-c4ccc(S(=O)(=O)N5CCC(F)C5)cc4)[nH]c3nc2=O)cc1` (stereo not drawn) [Compound 744]: the minimal inhibitory concentration (MIC) is over 16 µg/mL. For `N=C(N)NCCCNCc1ccc(-n2cc3cc(-c4ccc(S(=O)(=O)N(CCCn5cc(Cl)cn5)C5CCNCC5)cc4)[nH]c3nc2=O)cc1` [Compound 1003], the “E. coli ATCC25922 MIC” value is given as “+ (a “+” indicates that the compound has an MIC value of 16 micrograms/ml or less)”. Same read-out and setting: in the case of `COCCOCCN(C1CCNCC1)S(=O)(=O)c1cccc(-c2cc3cn(-c4ccc(CNCCCNC(=N)N)cc4)c(=O)nc3[nH]2)c1` [Compound 1161] it was “+ (a “+” indicates that the compound has an MIC value of 16 micrograms/ml or less)”; in that of `N=C(N)NCCCNCc1ccc(-n2cc3cc(-c4ccc(S(=O)(=O)N(CCC(=O)Nc5ccc([N+](=O)[O-])cc5)C5CCNCC5)cc4)[nH]c3nc2=O)cc1` [Compound 854], “+ (a “+” indicates that the compound has an MIC value of 16 micrograms/ml or less)”.

Consider `N=C(N)NCCCNC(=O)c1ccc(-n2cc3cc(-c4ccc(S(=O)(=O)NC5CCNCC5)cc4)[nH]c3nc2=O)cc1` [Compound 893], for which the “E. coli ATCC25922 MIC” value is listed as “+ (a “+” indicates that the compound has an MIC value of 16 micrograms/ml or less)”. On the same count and under the same terms, in the case of `N=C(N)NCCCNCc1ccc(-n2cc3cc(-c4cccc(S(=O)(=O)N(Cc5ccc6nonc6c5)C5CCNCC5)c4)[nH]c3nc2=O)cc1` [Compound 1076] it was “+ (a “+” indicates that the compound has an MIC value of 16 micrograms/ml or less)”. As to `N=C(N)NCC(O)CNCc1ccc(-n2cc3cc(-c4ccc(S(=O)(=O)NC5CNC5)cc4)[nH]c3nc2=O)cc1` (stereo not drawn) [Compound 1416], the “E. coli ATCC25922 MIC” value is “+ (a “+” indicates that the compound has an MIC value of 16 micrograms/ml or less)”. Turning to `NCCCNCc1ccc(-c2cn3nc(N)[nH]c3nc2=O)cc1` [Compound 647], the MIC is over 16 µg/mL. As for `N=C(N)NCCCNCc1ccc(-n2cc3cc(C4CCN(C(=N)N)C4)[nH]c3nc2=O)cc1` (stereo not drawn) [Compound 1230], the MIC was under 16 µg/mL. As for `N=C(N)NCCCCc1cc(OC(F)(F)F)cc(-c2cc3cn(-c4ccc(C(NCCCNC(=N)N)C(F)(F)F)cc4)c(=O)nc3[nH]2)c1` (stereo not drawn) [Compound 2082a], the “E. coli ATCC25922 MIC” value is given as “+ (a “+” indicates that the compound has an MIC value of 16 micrograms/ml or less)”. With `N=C(N)NCCCNCc1ccc(-c2cn3cc(-c4ccc(C(=O)N5CCC(C(N)=O)C5)cc4)[nH]c3nc2=O)cc1` (stereo not drawn) [Compound 692], the minimal inhibitory concentration (MIC) is over 16 µg/mL. On to `NCCCCOc1ccc(-c2cn3cc(-c4ccc(S(=O)(=O)N5CCNCC5)cc4)[nH]c3nc2=O)cc1` [Compound 809], for which the “E. coli ATCC25922 MIC” value is given as “− (a “−” indicates that the compound has an MIC value greater than 16 micrograms/ml)”.

Values taken from US9193731B2, “Antimicrobial compounds and methods of making and using the same” (Melinta Therapeutics, Inc., priority 2009, dated 2015).
